# Literature values as cited in patent US11338055B2, “Wound dressing” (Animal Ethics Pty Ltd, priority 2017, dated 2022).
# Settings: typically up to about; depending on the method of administration
compound,measurement,value
CCCCN1CCCCC1C(=O)Nc1c(C)cccc1C (stereo not shown) [bupivacaine],duration of anaesthesia,6 to 12 h
